From the RepoRT retention time repository (doi:10.1021/acs.analchem.2c02893)

Test: RP, Thermo Scientific Acclaim RSLC 120 C18, 100 × 2.1 mm, 2.2 µm, 30 °C, 0.2 mL/min, estimated dead time 1.1 min; A: 90% water + 10% methanol + 0.01% formic acid + 5 mM ammonium formate, pH 3.61; B: methanol + 0.01% formic acid + 5 mM ammonium formate, pH 3.61; gradient (min/%B) 0/1 1/1 2/39 13/99.9 15/99.9 15.1/1 20.1/1
Conditions: stereoisomer not certain
For `CC(C)C(=O)C1(C(=O)Nc2ccccc2)OC1(C(=O)c1ccc(F)cc1)c1ccccc1` (stereo not given) [Atorvastatin IMP D (epoxide)], the LC retention time was 10.3 min.
`CCCCCn1nc(C(=O)NC(C(N)=O)C(C)(C)C)c2ccccc21` (stereo not given) [ADB-PINACA] showed an LC retention time of 11.2 min.
For `CN(CCO)CC(O)Cn1cnc2c1c(=O)n(C)c(=O)n2C` (stereo not given) [Xanthinol], the LC retention time was 2.99 min.
Work on `O=C(c1ccc(Cl)cc1)c1ccc(Cl)cc1` [Benzophenone-p.p-Dichloro] yielded an LC retention time of 11.9 min.
`CN1C2CCC1C(C(=O)O)C(OC(=O)c1ccccc1)C2` (stereo not given) [Benzoylecgonine] gave an LC retention time of 4.68 min.
In the case of `CCCSC(=O)N(CCC)CCC` [Vernolate], the LC retention time is reported as 11.5 min.
In the case of `CC(O)C1C(=O)N2C(C(=O)O)=C(SC3CNC(C(=O)N(C)C)C3)C(C)C12` (stereo not given) [Meropenem], the LC retention time is reported as 10.6 min.
Compound `O=C(Oc1cccc2ccccc12)c1cn(Cc2ccc(F)cc2)c2ccccc12` [FDU-PB-22] has an LC retention time of 12.6 min.
`CCCCCCCCCCCCCC(=O)NCCC[N+](C)(C)CCCS(=O)(=O)O` [Amidosulfobetaine-14] gave an LC retention time of 15 min.
For `CCCOP(=S)(OCCC)OP(=S)(OCCC)OCCC` [Aspon], the LC retention time was 12.9 min.
In the case of `COC(=O)C(NC(=O)c1nn(CCCCCF)c2ccccc12)C(C)C` (stereo not given) [AMB-5F], the LC retention time is reported as 10.5 min.
With `CC(C)(ON=C(C(=O)NC1C(=O)N2C(C(=O)[O-])=C(C[n+]3ccccc3)CSC12)c1csc(N)n1)C(=O)O` (stereo not given) [Ceftazidime] the LC retention time was 3.38 min.
For `CC1CC2C3CC(F)C4=CC(=O)C=CC4(C)C3(F)C(O)CC2(C)C1(O)C(=O)CO` (stereo not given) [Flumethasone], the LC retention time was 8.28 min.
With `O=C(Nc1ccc(Cl)cc1C(O)c1ccccc1)c1ccncc1` (stereo not given) [Inabenfide] the LC retention time was 9.27 min.
For `COC(=O)Nc1ccc(Cl)c(Cl)c1` [SWEP.MCC], the LC retention time was 9.68 min.
With `Clc1ccccc1C(c1ccccc1)(c1ccccc1)n1ccnc1` [Clotrimazole] the LC retention time was 11.2 min.
Compound `COc1cccc(C2(O)CCCCC2C[N+](C)(C)[O-])c1` (stereo not given) [Tramadol-N-oxide] has an LC retention time of 5.24 min.
`OC(Cn1cncn1)(c1ccc(F)cc1)c1ccccc1F` (stereo not given) [Flutriafol] gave an LC retention time of 8.12 min.
For `N#CCNC(=O)c1cnccc1C(F)(F)F` [Flonicamid], the LC retention time was 4.22 min.
Compound `COc1cc(C(=O)OCCCN(C)CCN(C)CCCOC(=O)c2cc(OC)c(OC)c(OC)c2)cc(OC)c1OC` [Hexobendine] has an LC retention time of 7.54 min.
Work on `Cc1c(COC(=O)C2C(C=C(Cl)C(F)(F)F)C2(C)C)cccc1-c1ccccc1` (stereo not given) [Bifenthrin] yielded an LC retention time of 14.1 min.
With `CCS(=O)(=O)CCSP(=O)(OC)OC` [Demeton-S-methylsulfone] the LC retention time was 4.15 min.
With `CC(C)C(NC(=O)c1nn(CCCCCCl)c2ccccc12)C(N)=O` (stereo not given) [AB-PINACA 5Cl] the LC retention time was 9.99 min.
In the case of `CC(C(O)c1ccccc1)N(C)C` (stereo not given) [Methylephedrine], the LC retention time is reported as 3.73 min.
In the case of `Cc1cccc(C(=O)O)c1N(Cn1cccn1)C(=O)C(=O)O` [Metazachlor BH479-12], the LC retention time is reported as 4.42 min.
`CCCCN(CC)C(=O)SCCC` [Pebulate] showed an LC retention time of 11.5 min.
Compound `CCCc1nn(C)c2c(=O)[nH]c(-c3cc(C(=O)CN4CCN(CC=Cc5ccccc5)CC4)ccc3OCC)nc12` [Cinnamyldenafil] has an LC retention time of 9.28 min.
`O=C(Oc1cccc2ccccc12)c1nn(CCCCCF)c2ccccc12` [SDB-005-5F] showed an LC retention time of 12.1 min.
For `O=C(O)c1cccnc1Nc1cccc(C(F)(F)F)c1` [Niflumic acid], the LC retention time was 9.86 min.
With `COP(=O)(OC)OC(C)=CC(=O)N(C)C` [Dicrotophos] the LC retention time was 4.5 min.
`CN(C)C1CSSSC1` [Thiocyclam] showed an LC retention time of 3.16 min.
`CC(CC(C#N)(c1ccccc1)C(C)C)N(C)C` (stereo not given) [Isoaminile] gave an LC retention time of 5.96 min.
With `O=[N+]([O-])c1cc(C(F)(F)F)c(Cl)c([N+](=O)[O-])c1Nc1ncc(C(F)(F)F)cc1Cl` [Fluazinam] the LC retention time was 12.3 min.
`O=c1c2cc(F)ccc2nc(-n2cncn2)n1-c1ccc(Cl)cc1Cl` [Fluquinconazole] showed an LC retention time of 10.1 min.
With `CCN(CC)CCOC(=O)C(c1ccccc1)C1CCCCC1` (stereo not given) [Drofenine] the LC retention time was 9.19 min.
Compound `NC(=S)c1c(Cl)cccc1Cl` [Chlorothiamide] has an LC retention time of 5.69 min.
For `Cc1ncsc1CCCl` [Clomethiazole], the LC retention time was 6.69 min.
For `c1ccc2c(c1)CCCC2C1=NCCN1` (stereo not given) [Tetryzoline], the LC retention time was 4.47 min.
For `CN(C)CCCC1(c2ccc(F)cc2)OC(=O)c2cc(C#N)ccc21` (stereo not given) [Citalopram 3-oxo], the LC retention time was 6.6 min.
For `C=C1CC(=CC)C(=O)OC2CCN3CC=C(COC(=O)C1(C)O)C23` (stereo not given) [Seneciphylline], the LC retention time was 4.17 min.
Compound `N[C@@H](Cc1cc(I)c(Oc2cc(I)c(O)c(I)c2)c(I)c1)C(=O)O` [L-Thyroxine] has an LC retention time of 9.39 min.
For `C=CCN(CC=C)C(=O)C(Cl)Cl` [Dichlormid], the LC retention time was 7.18 min.
With `CC(C)C(=O)Nc1ccc([N+](=O)[O-])c(C(F)(F)F)c1` [Flutamide] the LC retention time was 11.2 min.
For `CC(C)NCC(O)c1ccc(NS(C)(=O)=O)cc1` (stereo not given) [Sotalol], the LC retention time was 2.96 min.
In the case of `Cc1c(N(C)C)c(=O)n(-c2ccccc2)n1C` [Aminophenazone. Amidopyrin], the LC retention time is reported as 5.21 min.
`CC(Cn1cnc2c(N)ncnc21)OCP(=O)(O)O` (stereo not given) [Tenofovir] gave an LC retention time of 2.69 min.
For `CCOC(=O)Nc1cccc(OC(=O)Nc2ccccc2)c1` [Medipham-Desmethyl (desmedipham)], the LC retention time was 8.57 min.
`CC1(C)OC2CC3C4CC(F)C5=CC(=O)C=CC5(C)C4(F)C(O)CC3(C)C2(C(=O)CO)O1` (stereo not given) [Fluocinolone acetonide] showed an LC retention time of 8.73 min.
With `NNC(N)=O` [Semicarbazide (SEM)] the LC retention time was 1.33 min.
In the case of `CN1C2CCC1CC(OC(c1ccccc1)c1ccccc1)C2` (stereo not given) [Benzatropine], the LC retention time is reported as 7.97 min.
`COc1cc(CCN)c(OC)cc1C` [2 C-D] showed an LC retention time of 5.34 min.
For `CCC(CO)NC(=O)C1C=C2c3cccc4[nH]cc(c34)CC2N(C)C1` (stereo not given) [Ergometrine-Methyl], the LC retention time was 4.34 min.
`CC1(C)CCC(=Cc2ccc(Cl)cc2)C1(O)Cn1cncn1` (stereo not given) [Triticonazole] gave an LC retention time of 10.1 min.
In the case of `Clc1ccc(CSC(Cn2cncn2)=Nc2ccc(Cl)cc2Cl)cc1` [Imibenconazole], the LC retention time is reported as 12.4 min.
Work on `CCOC(=O)CSc1nc(C(C)(C)C)nn1C(=O)N(C)C` [Triazamate] yielded an LC retention time of 6.38 min.
`CCOP(=O)(OCC)Oc1ccc([N+](=O)[O-])cc1` [Paraoxon] gave an LC retention time of 8.01 min.
Compound `CCCCCCC(C)(C)c1ccc(C2CC(O)CCC2CCCO)c(O)c1` (stereo not given) [CP 55-940] has an LC retention time of 12 min.
With `COc1nc(C)nc(N)n1` [2-Methyl-4-amino-6-methoxy-s-triazine] the LC retention time was 3.71 min.
For `COc1cc(CC(C)N)c(OC)cc1Br` (stereo not given) [DOB], the LC retention time was 5.93 min.
Compound `O=C(Nc1cccc2cccnc12)c1nn(CCCCCF)c2ccccc12` [THJ-5F] has an LC retention time of 12.5 min.
Compound `Cc1ccccc1N1CCN(CCc2nnc3n2CCCC3)CC1` [Dapiprazole] has an LC retention time of 5.66 min.
`CCCSP(=O)(OCC)Oc1ccc(Br)cc1Cl` (stereo not given) [Profenophos] gave an LC retention time of 12 min.
With `CCCCCn1cc(C(=O)c2cccc3ccccc23)c2cccc(O)c21` [JWH-018-M-7-OH-Ind] the LC retention time was 11.8 min.
Work on `CC(COc1ccc(C(C)(C)C)cc1)OS(=O)OCCCl` (stereo not given) [Aramite (total)] yielded an LC retention time of 12.2 min.
`CC(C)C(Nc1ccc(C(F)(F)F)cc1Cl)C(=O)OC(C#N)c1cccc(Oc2ccccc2)c1` (stereo not given) [Fluvalinate (tau-)] gave an LC retention time of 13.5 min.
`c1ccc(CC2=NCCN2)cc1` [Tolazoline] showed an LC retention time of 3.28 min.
Work on `Nc1cc(-c2ccncc2)c[nH]c1=O` [Amrinone] yielded an LC retention time of 2.88 min.
`COCC(C)N(C(=O)CCl)c1c(C)csc1C` (stereo not given) [Dimethenamide] gave an LC retention time of 9.26 min.
`COc1cccc(C2(O)CCCCC2CN)c1` (stereo not given) [Tramadol-N-bisdesmethyl (dinor-tramadol)] showed an LC retention time of 5.19 min.
Work on `CCCCCCCCCC[N+](C)(C)CCCCCCCCCC` [Didecyldimethylammonium (DADMAC (C10:C10))] yielded an LC retention time of 12.6 min.
`CC(=O)Oc1cc(C(C)C)c(OCCN(C)C)cc1C` [Moxisylyte] gave an LC retention time of 6.21 min.
With `CC(N)Cc1ccc(F)cc1` (stereo not given) [Amphetamine (4-F-)] the LC retention time was 4.39 min.
`COc1cc(C(=O)NCc2ccc(OCCN(C)C)cc2)cc(OC)c1OC` [Trimethobenzamide] gave an LC retention time of 4.86 min.
Compound `CN(C)c1ccc(C(c2ccccc2)c2ccc(N(C)C)cc2)cc1` [Leuco malachite green (LMG)] has an LC retention time of 13.7 min.
Compound `COc1ccccc1Oc1c(NS(=O)(=O)c2ccc(C(C)(C)C)cc2)nc(-c2ncccn2)nc1OCCO` [Bosentan] has an LC retention time of 9.96 min.
`CC(=O)CCCCn1c(=O)c2c(ncn2C)n(C)c1=O` [Pentoxifylline] gave an LC retention time of 5.23 min.
In the case of `CCCCNC(=O)NS(=O)(=O)c1ccc(C)cc1` [Tolbutamide], the LC retention time is reported as 7.68 min.
`CCCCc1ncc(C=C(Cc2cccs2)C(=O)O)n1Cc1ccc(C(=O)O)cc1` [Eprosartan] showed an LC retention time of 7.49 min.
Compound `COC(=O)N(C(=O)N1COC2(C(=O)OC)Cc3cc(Cl)ccc3C2=N1)c1ccc(OC(F)(F)F)cc1` (stereo not given) [Indoxacarb] has an LC retention time of 11.6 min.
`O=C(Nc1ccccc1)Nc1ccnc(Cl)c1` [Forchlorfenuron] showed an LC retention time of 8.53 min.
With `Cc1cc(Cl)ccc1OCCCC(=O)O` [MCPB] the LC retention time was 10.1 min.
`CCOCCN(C(=O)CCl)C(=C(C)C)c1ccccc1` [Pethoxamide] gave an LC retention time of 10.1 min.
Compound `CN(C)C(=N)N=C(N)N` [Metformin] has an LC retention time of 1.39 min.
In the case of `Clc1cccc(N2CCNCC2)c1` [Chlorophenylpiperazine (meta-)<U+00A0>(mCPP)], the LC retention time is reported as 5.42 min.
With `CC1=C(C(=O)O)N2C(=O)C(NC(=O)C(N)c3ccccc3)C2SC1` (stereo not given) [Cefalexin] the LC retention time was 4.08 min.
